Experimental data as given in US11028079B2 (ConverGene LLC, priority 2015, dated 2021).

The compounds below were run against T1, BRD4 bromodomains (Homo sapiens, UniProt O60885) (assay: BROMOscan bromodomain competition binding assay (DiscoveRx)). Settings: Kd from 11 compound concentrations ranging from 0 to 10 μM, read-out: BROMOscan Relative Activity.
T1 construct: fused on or other part: T7 phage capsid protein (phage-display fusion; the phage DNA is read out by qPCR)
Method in brief: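 Compounds in 0.1% DMSO/0.9% MEG competed with a solid-phase acetylated peptide for T7 phage-fused BRD4 bromodomains, with the retained bromodomain measured by qPCR.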

Kd [nM] | Structure (SMILES)
> 5000 | CN(C)CCN1CCN(c2nc(NCc3cccc(Cl)c3)c3cc(-c4cn[nH]c4)ccc3n2)CC1 [Example 64, N-(3-chlorobenzyl)-2-(4-(2-(dimethylamino)ethyl)piperazin-1-yl)-6-(1H-pyrazol-4-yl)quinazolin-4-amine]
< 500 | Cc1noc(C)c1-c1ccc2nc(N3CCN(CCN(C)C)CC3)nc(NCc3cncc(F)c3)c2c1 [Example 83, 2-(4-(2-(dimethylamino)ethyl)piperazin-1-yl)-6-(3,5-dimethylisoxazol-4-yl)-N-((5-fluoropyridin-3-yl)methyl)quinazolin-4-amine]
< 500 | Cc1noc(C)c1-c1ccc2nc(N3CCN(C(=O)c4ccncc4)CC3)nc(NCc3cccc(Cl)c3)c2c1 [Example 29, (4-(4-((3-chlorobenzyl)amino)-6-(3,5-dimethylisoxazol-4-yl)quinazolin-2-yl)piperazin-1-yl)(pyridin-4-yl)methanone]
> 5000 | Cn1cc(-c2ccc3ncnc(Nc4ccc(Cl)cc4)c3c2)ccc1=O [Example 159, 5-(4-((4-chlorophenyl)amino)quinazolin-6-yl)-1-methylpyridin-2(1H)-one]
500 to 5000 | Cc1n[nH]c(C)c1-c1ccc2nc(N3CCN(CCN(C)C)CC3)nc(NCc3cccc(Cl)c3)c2c1 [Example 65, N-(3-chlorobenzyl)-6-(3,5-dimethyl-1H-pyrazol-4-yl)-2-(4-(2-(dimethylamino)ethyl)piperazin-1-yl)quinazolin-4-amine]
< 500 | Cc1noc(C)c1-c1ccc2nc(N3CCC4(CCNC4=O)CC3)nc(N3CCOC[C@@H]3c3ccccc3)c2c1 [Example 329, (S)-8-(6-(3,5-dimethylisoxazol-4-yl)-4-(3-phenylmorpholino)quinazolin-2-yl)-2,8-diazaspiro[4.5]decan-1-one]
< 500 | Cc1noc(C)c1-c1ccc2nc(N3CCN(CC(C)(C)O)CC3)nc(NCc3cncc(Cl)c3)c2c1 [Example 136, 1-(4-(4-(((5-chloropyridin-3-yl)methyl)amino)-6-(3,5-dimethylisoxazol-4-yl)quinazolin-2-yl)piperazin-1-yl)-2-methylpropan-2-ol]
< 500 | Cc1noc(C)c1-c1ccc2nc(N3CCN(CC(C)(C)O)CC3)nc(N3CCOC[C@@H]3c3ccccc3)c2c1 [Example 295, (S)-1-(4-(6-(3,5-dimethylisoxazol-4-yl)-4-(3-phenylmorpholino)quinazolin-2-yl)piperazin-1-yl)-2-methylpropan-2-ol]
500 to 5000 | Cc1cc(NC(=O)c2nc(NCc3cccc(Cl)c3)c3cc(-c4c(C)noc4C)ccc3n2)ccn1 [Example 218, 4-((3-chlorobenzyl)amino)-6-(3,5-dimethylisoxazol-4-yl)-N-(2-methylpyridin-4-yl)quinazoline-2-carboxamide]
< 500 | Cc1noc(C)c1-c1ccc2nc(-c3cnn(CC#N)c3)nc(NCc3cccc(Cl)c3)c2c1 [Example 59, 2-(4-(4-((3-chlorobenzyl)amino)-6-(3,5-dimethylisoxazol-4-yl)quinazolin-2-yl)-1H-pyrazol-1-yl)acetonitrile]
< 500 | Cc1noc(C)c1-c1ccc2nc(-c3cnn(CS(C)(=O)=O)c3)nc(N3CCOC[C@@H]3c3ccccc3)c2c1 [Example 302, (S)-4-(6-(3,5-dimethylisoxazol-4-yl)-2-(1-((methylsulfonyl)methyl)-1H-pyrazol-4-yl)quinazolin-4-yl)-3-phenylmorpholine]
< 500 | Cc1noc(C)c1-c1ccc2nc(N3CCN(C(=O)C4CC4)CC3)nc(NCc3cccc(Cl)c3)c2c1 [Example 17, (4-(4-((3-chlorobenzyl)amino)-6-(3,5-dimethylisoxazol-4-yl)quinazolin-2-yl)piperazin-1-yl)(cyclopropyl)methanone]
500 to 5000 | Cn1cc(-c2ccc3nc(-c4cnn(CC(N)=O)c4)nc(NCc4cncc(Cl)c4)c3c2)ccc1=O [Example 145, 2-(4-(4-(((5-chloropyridin-3-yl)methyl)amino)-6-(1-methyl-6-oxo-1,6-dihydropyridin-3-yl)quinazolin-2-yl)-1H-pyrazol-1-yl)acetamide]
< 500 | Cc1noc(C)c1-c1ccc2nc(N3CCN(C)CC3)nc(NCc3cccc(Cl)c3)c2c1 [Example 6, N-(3-chlorobenzyl)-6-(3,5-dimethylisoxazol-4-yl)-2-(4-methylpiperazin-1-yl)quinazolin-4-amine]
< 500 | Cc1noc(C)c1-c1ccc2nc(N3CCN(C)CC3)nc(N3CCOC[C@@H]3c3ccccc3)c2c1 [Example 293, (S)-4-(6-(3,5-dimethylisoxazol-4-yl)-2-(4-methylpiperazin-1-yl)quinazolin-4-yl)-3-phenylmorpholine]
< 500 | COc1nc(NCc2cccc(Cl)c2)c2cc(-c3c(C)noc3C)ccc2n1 [Example 8, N-(3-chlorobenzyl)-6-(3,5-dimethylisoxazol-4-yl)-2-methoxyquinazolin-4-amine]

Kd [nM] | Structure (SMILES)
< 500 | Cc1noc(C)c1-c1ccc2nc(NCCN3CCN(C)CC3)nc(NCc3cccc(Cl)c3)c2c1 [Example 11, N4-(3-chlorobenzyl)-6-(3,5-dimethylisoxazol-4-yl)-N2-(2-(4-methylpiperazin-1-yl)ethyl)quinazoline-2,4-diamine]
< 500 | Cn1cc(-c2ccc3nc(N4CCN(CC(C)(C)O)CC4)nc(NCc4cncc(Cl)c4)c3c2)ccc1=O [Example 135, 5-(4-(((5-chloropyridin-3-yl)methyl)amino)-2-(4-(2-hydroxy-2-methylpropyl)piperazin-1-yl)quinazolin-6-yl)-1-methylpyridin-2(1H)-one]
< 500 | Cc1noc(C)c1-c1ccc2nc(C(=O)NC3CCOCC3)nc(NCc3cncc(Cl)c3)c2c1 [Example 229, 4-(((5-chloropyridin-3-yl)methyl)amino)-6-(3,5-dimethylisoxazol-4-yl)-N-(tetrahydro-2H-pyran-4-yl)quinazoline-2-carboxamide]
500 to 5000 | Cc1noc(C)c1-c1ccc2nc(N3CCC(C)(C#N)CC3)nc(NCc3cccc(Cl)c3)c2c1 [Example 156, 1-(4-((3-chlorobenzyl)amino)-6-(3,5-dimethylisoxazol-4-yl)quinazolin-2-yl)-4-methylpiperidine-4-carbonitrile]
< 500 | Cc1noc(C)c1-c1ccc2nc(C(=O)NCc3cncn3C)nc(NCc3cncc(Cl)c3)c2c1 [Example 232, 4-(((5-chloropyridin-3-yl)methyl)amino)-6-(3,5-dimethylisoxazol-4-yl)-N-((1-methyl-1H-imidazol-5-yl)methyl)quinazoline-2-carboxamide]
< 500 | Cc1noc(C)c1-c1ccc2nc(C(=O)NC3CCS(=O)(=O)CC3)nc(NCc3cncc(Cl)c3)c2c1 [Example 239, 4-(((5-chloropyridin-3-yl)methyl)amino)-6-(3,5-dimethylisoxazol-4-yl)-N-(1,1-dioxidotetrahydro-2H-thiopyran-4-yl)quinazoline-2-carboxamide]
< 500 | Cc1ccncc1CNc1nc(N2CCN(CCN(C)C)CC2)nc2ccc(-c3c(C)noc3C)cc12 [Example 84, 2-(4-(2-(dimethylamino)ethyl)piperazin-1-yl)-6-(3,5-dimethylisoxazol-4-yl)-N-((4-methylpyridin-3-yl)methyl)quinazolin-4-amine]
< 500 | Cc1noc(C)c1-c1ccc2nc(C(=O)NC3CCOCC3)nc(NC3(c4cccc(Cl)c4)CC3)c2c1 [Example 247, 4-((1-(3-chlorophenyl)cyclopropyl)amino)-6-(3,5-dimethylisoxazol-4-yl)-N-(tetrahydro-2H-pyran-4-yl)quinazoline-2-carboxamide]
< 500 | CN(C)C(=O)CN1CCN(c2nc(NCc3cncc(Cl)c3)c3cc(-c4ccc(=O)n(C)c4)ccc3n2)CC1 [Example 129, 2-(4-(4-(((5-chloropyridin-3-yl)methyl)amino)-6-(1-methyl-6-oxo-1,6-dihydropyridin-3-yl)quinazolin-2-yl)piperazin-1-yl)-N,N-dimethylacetamide]
< 500 | Cc1noc(C)c1-c1ccc2nc(C(=O)NC3CN(C)C3)nc(N3CCOC[C@@H]3c3ccccc3)c2c1 [Example 277, (S)-6-(3,5-dimethylisoxazol-4-yl)-N-(1-methylazetidin-3-yl)-4-(3-phenylmorpholino)quinazoline-2-carboxamide]
< 500 | Cc1noc(C)c1-c1ccc2nc(N3CCN(CCN(C)C)CC3)nc(NCc3ccc(Cl)s3)c2c1 [Example 94, N-((5-chlorothiophen-2-yl)methyl)-2-(4-(2-(dimethylamino)ethyl)piperazin-1-yl)-6-(3,5-dimethylisoxazol-4-yl)quinazolin-4-amine]
< 500 | Cc1noc(C)c1-c1ccc2nc(C(=O)NCc3cnn(C)c3C)nc(NCc3cccc(Cl)c3)c2c1 [Example 190, 4-((3-chlorobenzyl)amino)-N-((1,5-dimethyl-1H-pyrazol-4-yl)methyl)-6-(3,5-dimethylisoxazol-4-yl)quinazoline-2-carboxamide]
< 500 | Cc1noc(C)c1-c1ccc2nc(-c3cnn(C)c3)nc(NCc3cccc(Cl)c3)c2c1 [Example 49, N-(3-chlorobenzyl)-6-(3,5-dimethylisoxazol-4-yl)-2-(1-methyl-1H-pyrazol-4-yl)quinazolin-4-amine]
500 to 5000 | Cc1noc(C)c1-c1ccc2nc(-c3c(C)noc3C)cc(NCc3cccc(Cl)c3)c2c1 [Example 14, N-(3-chlorobenzyl)-2,6-bis(3,5-dimethylisoxazol-4-yl)quinolin-4-amine]
< 500 | Cc1cnccc1CNC(=O)c1nc(NCc2cccc(Cl)c2)c2cc(-c3c(C)noc3C)ccc2n1 [Example 217, 4-((3-chlorobenzyl)amino)-6-(3,5-dimethylisoxazol-4-yl)-N-((3-methylpyridin-4-yl)methyl)quinazoline-2-carboxamide]
< 500 | Cc1noc(C)c1-c1ccc2nc(N3CCN(CCN(C)C)CC3)nc(NCc3ccccc3F)c2c1 [Example 76, 2-(4-(2-(dimethylamino)ethyl)piperazin-1-yl)-6-(3,5-dimethylisoxazol-4-yl)-N-(2-fluorobenzyl)quinazolin-4-amine]
